Measured values from PMC9329053, “Discovery of Novel Tyrosinase Inhibitors From Marine Cyanobacteria” (Frontiers in Microbiology, 2022).
Like-named read-outs stand apart in the source and are kept apart here. One block for each compound: values may come before it.

Tests used:
[1] = target: Mushroom tyrosinase; conditions: cited from earlier work
[2] = Solubility of ScyM in the assay buffer system
[3] = target: T1, mushroom tyrosinase (A. bisporus) (Agaricus bisporus, UniProt C7FF04); experiment: Dynamic dose-dependent tyrosinase inhibition study; assay type: biochemical
T1 construct: purchased Sigma-Aldrich and Worthington Biochemical Corp
Procedure: Respectively, the final concentration gradient of the test samples was set to be 200, 150, 75, 25, 5, and 1 μM. For OD measurements, the plate was read in the dynamic mode for 60 min with measurements recorded every minute, using the SpectraMax M3 plate reader at 475 nm and 490 nm. Forty-five seconds of shaking was also performed before first reading to retain method consistency.

[4] = target: T2, mushroom tyrosinase (Agaricus bisporus, UniProt C7FF04); experiment: Kinetic analysis of tyrosinase and inhibitors (Lineweaver-Burk); assay type: biochemical, A. bisporus
T2 construct: purchased Sigma-Aldrich and Worthington Biochemical Corp
Procedure: The Lineweaver–Burk plot was generated using Graphpad Prism 9.2.0. Experiments were performed in triplicate.
A kinetic study was performed to better understand the tyrosinase inhibitory properties of ScyM. For this kinetic mode analysis, varying concentrations of substrate and inhibitor were used in the assays in order to generate Lineweaver–Burk plots. […] The Lineweaver–Burk plot (Figures 6A,B), also known as the double reciprocal plot, is commonly used to determine the mechanism of how an inhibitor is inhibiting an enzyme. […] Two inhibition parameters, the Michaelis–Menten constant (Km) and maximal velocity (Vmax), are also visualized in this plot. […] The apparent Km and Vmax values were calculated as an average of triplicate measurements and are provided with standard deviations (see Table 2).

[5] = target: T3, tyrosinase (Agaricus bisporus, UniProt C7FF04); experiment: Isobologram / interaction index analysis of ScyM and KA; assay type: biochemical, A. bisporus; conditions: single compounds, determined again for the isobologram; read-out: IC50 (another round of dose-dependent assays)
T3 construct: purchased Sigma-Aldrich and Worthington Biochemical Corp
Description: Based on the derived equation, γ=∑i=2ndi/Di , where Di represents the dose of an individual drug to achieve 50% efficacy when acting alone, and di represents the dose of each drug in the compound mixture when the combined drug achieves 50% efficacy. Accordingly, when the interactions between drugs are synergistic, additive, and antagonistic, the corresponding values of γ are <1, = 1, and >1, respectively. Therefore, the smaller the index value, the stronger the synergistic effect.

[6] = system: NCI-H460 human lung carcinoma cell line; experiment: MTT cytotoxicity assay; assay type: cell-based; conditions: H460 human lung cancer cells; no significant effect at concentration as high as 254 μM
Procedure: The cytotoxicity assay was performed using a protocol previously published ([Yu H.-B. et al., 2019]; [Leber et al., 2020]). Briefly, the MTT staining method was used to determine the cytotoxicity of compounds of interest using the NCI-H460 human lung carcinoma cell line purchased from ATCC (Manassas, VA, United States). The cells were grown in flasks and then seeded into wells at 3.33 × 10^4 cells/ml of Roswell Park Memorial Institute (RPMI-1640) medium with standard fetal bovine serum (FBS), leading to 180 μl/well. The cells were then pre-incubated for 24 h at 37°C in 96-well plates before drug was added. Thereafter, with addition of diluted compounds of interest dissolved in DMSO, plates were incubated for an additional 48 h and then stained with MTT (thiazolyl blue tetrazolium bromide 98%; Sigma-Aldrich) for 25 min, after which the optical densities (OD) were recorded at 630 and 570 nm for each well on a SpectraMax M3 plate reader (Molecular Devices, San Jose, CA, United States). Doxorubicin and 1% DMSO in RPMI-1640 without fetal bovine serum were used as positive and negative controls, respectively. Polyethylene glycol (PEG) was used to facilitate dissolution of compounds with limited solubility.

[7] = target: T1, mushroom tyrosinase (A. bisporus); experiment: End-point colorimetric tyrosinase inhibition assay (broad screening); assay type: biochemical; conditions: within 20 minutes; 475 and 490 nm; blank with enzyme rises to ~0.100
Procedure: Four types of assay wells were designated for each screening plate (see Supplementary Figure S2 for visualization), in which the following reaction mixtures were added: A [Blank Control with Enzyme] contains 2 μl of DMSO, 118 μl of prepared 0.067 M sodium phosphate buffer and 40 μl of tyrosinase (100 units/ml) in the same buffer; B [Blank Control without Enzyme] contains 2 μl of DMSO and 158 μl of 0.067 M sodium phosphate buffer; C [Testing Material with Enzyme] contains 2 μl of sample (1 mg/ml in DMSO), 118 μl of 0.067 M sodium phosphate buffer and 40 μl of tyrosinase (100 Units/mL) in the same buffer; D [Testing Material without Enzyme] contains 2 μl of sample (1 mg/ml in DMSO) and 158 μl of 0.067 M sodium phosphate buffer. Samples were tested in triplicate.
The final test sample concentration was 10 μg/ml, while the final DMSO concentrations for both negative controls and samples kept ≤1%. […] Forty-five seconds of shaking was performed by the instrument before the wells were read.
The percentage inhibition of the tyrosinase activity was calculated by the equation: % Inhibition = {[(A − B) − (C − D)]/(A − B)} × 100, where A, B, C and D are all OD values from the corresponding wells at the same time point. It reflects the inhibitory strength of the testing material by comparing to the blank condition where no inhibitor is added.

[8] = parameters: method as in Malla and Sommer, 2014; Kang et al., 2020; conditions: ref Malla and Sommer, 2014; Kang et al., 2020; cited from earlier work
[9] = mushroom tyrosinase, SD not given, ref Wu et al., 2013
[10] = mushroom tyrosinase, ref Paudel et al., 2019
[11] = mushroom tyrosinase, SD not given, ref Li et al., 2005
[12] = mushroom tyrosinase, SD not given, ref Sheng et al., 2018

T1 sequence (C7FF04 1-392): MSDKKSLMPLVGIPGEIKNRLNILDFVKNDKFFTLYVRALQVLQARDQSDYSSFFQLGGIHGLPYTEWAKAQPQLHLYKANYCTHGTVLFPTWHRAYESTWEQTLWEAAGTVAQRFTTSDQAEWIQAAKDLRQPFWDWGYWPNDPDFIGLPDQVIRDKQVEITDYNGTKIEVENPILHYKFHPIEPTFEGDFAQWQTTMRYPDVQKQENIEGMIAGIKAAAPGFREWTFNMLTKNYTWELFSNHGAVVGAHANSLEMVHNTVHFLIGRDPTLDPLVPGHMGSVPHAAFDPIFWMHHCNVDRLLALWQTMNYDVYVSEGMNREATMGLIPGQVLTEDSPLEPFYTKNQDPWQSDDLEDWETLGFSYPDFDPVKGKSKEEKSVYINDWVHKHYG
T2 sequence (C7FF04 1-392): as above
T3 sequence (C7FF04 1-392): as above

- melting point: > 210 °C
Compound: O=C1Cc2c([nH]c3ccccc23)/C1=C\c1ccc(O)cc1 (hydrate or solvate) [ScyM, scytonemin monomer]

Compound: CC(=O)OC[C@]12[C@H](OC(C)=O)[C@H](O)C[C@H](C)[C@]1(OC(C)=O)[C@@H](OC(C)=O)[C@@H](C(C)(C)O)C[C@H]2OC(=O)c1ccccc1 [1β,5α,6α,14-Tetraacetoxy-9α-benzoyloxy-7β H-eudesman-2β,11-diol]
- IC50 [1, 9]: 14.8 µM

Compound: OCCc1c(Br)c(O)c(O)c(Br)c1Br [2,3,6-Tribromo-4,5-dihydroxybenzyl methyl alcohol]
- IC50 [1, 10]: 270.5 ± 2.04 µM
- Mechanism ([1]; ref Paudel et al., 2019): Competitive

Compound: O=C(O)c1cccc(-c2ccccc2)c1 [3-Phenylbenzoic acid (3-PBA), 3-Phenylbenzoic acid]
- IC50 ([1]; mushroom tyrosinase, SD not given, ref Oyama et al., 2016): 36.3 µM
- Mechanism ([1]; ref Oyama et al., 2016): Mixed

Compound: CC(=O)O[C@@]12C[C@@H](C(C)(C)O)C[C@@H](OC(=O)c3ccccc3)[C@@]1(CO)[C@H](O)[C@H](O)C[C@@]2(C)OC(C)=O [4α,5α-Diacetoxy-9α-benzoyloxy-7βH-eudesman-1β,2β,11, 14-tetraol]
- IC50 [1, 9]: 22.3 µM

Compound: CCCCCc1cccc(=O)o1 [6-n-Pentyl-α-pyrone]
- IC50 [1, 11]: 0.8 µM

Compound: COc1ccc(/C=C/C(=O)Oc2cc(OC)ccc2C(C)=O)cc1 [(E)-2-Acetyl-5-methoxyphenyl-3-(4-methoxyphenyl)acrylate]
- IC50 [1, 12]: 8.3 µM
- Mechanism ([1]; ref Sheng et al., 2018): Mixed

Compound: Cc1ccc(C(C)C)c(OC(=O)/C=C/c2ccc(O)cc2)c1 [(E)-2-Isopropyl-5-methylphenyl-3-(4-hydroxyphenyl)acrylate]
- IC50 [1, 12]: 10.6 µM
- Mechanism ([1]; ref Sheng et al., 2018): Mixed

Compound: O=c1cc(-c2ccccc2)oc2cc(O)c(O)c(O)c12 [Baicalein]
- IC50 ([1]; mushroom tyrosinase, SD not given, ref Guo et al., 2018): 110 µM
- Mechanism ([1]; ref Guo et al., 2018): Mixed

Compound: O=C1C=C2CC3(O)COc4cc(O)ccc4C3=C2C=C1O (stereo not drawn) [Brazilein]
- IC50 ([1]; mushroom tyrosinase, ref Hridya et al., 2015): 21200 µM
- Mechanism ([1]; ref Hridya et al., 2015): Mixed

Compound: C=C[C@]1(O)CC(NC=O)=CC1=O [Myrothenone A]
- IC50 [1, 11]: 6.6 µM

- saturation point in the assay system ([2]; 0.067 M sodium phosphate buffer, ≤1% DMSO, precipitate seen at 75, 150 and 200 μM): less than 75 μM
- dissolution in the assay buffer system ([2]; range of 0–10 μM): fully dissolves with no precipitate
- IC50 [3]: 4.9 ± 0.3 µM
- inhibition at 25 µM ([3]; read-out: inhibition by crude ScyM): ~60%
- inhibition at 10 µM ([3]; read-out: inhibition by purified ScyM): ~60%
- Inhibition mode ([4]; Lineweaver-Burk plot, L-Dopa substrate): Mixed
- Mechanism ([4]; Table 3, this experiment): Mixed
- Vmax (OD·min^−1) ([4]; apparent Vmax of tyrosinase with inhibitor, L-Dopa substrate, triplicate with SD): 5.98 ± 0.52 OD·min^−1
- IC50 [5]: 4.7 µM
- OD reading with tyrosinase enzyme [7]: ~ 0.080
Compound: O=C1Cc2c([nH]c3ccccc23)/C1=C\c1ccc(O)cc1 [ScyM, scytonemin monomer]
- cytotoxicity [6]: non-cytotoxic

- inhibition at 35 µM ([3]; 35 μM): ~1%
Compound: COc1ccc(/C=C2/C(=O)Cc3c2[nH]c2ccccc32)cc1 [ScyM-OMe, O-Methyl Scytonemin Monomer]

Compound: O=C(O)c1ccc(C(=O)O)cc1 [Terephthalic acid]
- IC50 ([1]; mushroom tyrosinase, ref Yin et al., 2011): 26600 µM
- Mechanism ([1]; ref Yin et al., 2011): Mixed

Compound: CC[C@H](C)[C@@H]1NC(=O)[C@H](Cc2ccc(O)cc2)N(C)C(=O)[C@H]([C@H](C)O)N2C(=O)[C@H](CC[C@H]2O)NC(=O)[C@H](CC(C)C)NC(=O)[C@@H](NC(=O)[C@H](CCC(N)=O)NC(=O)[C@H](CCc2ccc(O)cc2)NC(=O)[C@H](O)CO)[C@@H](C)OC1=O [oscillapeptin G]
- IC50 ([1]; tyrosinase, post-conversion, ref Sano and Kaya, 1996): ~100 µM

Compound: Bis-(2,3,6-tribromo-4,5-dihydroxybenzyl methyl ether
- IC50 [1, 10]: 111 ± 4.95 µM
- Mechanism ([1]; ref Paudel et al., 2019): Competitive

- tyrosinase inhibition in dose-dependent assay ([3]; all concentrations tested, from 1 up to 200 μM): almost no inhibition
Compound: scytonemin
- cytotoxicity [8]: non-cytotoxic
